Assay results as given in article PMC8869984, “Multifunctional Silver(I) Complexes with Metronidazole Drug Reveal Antimicrobial Properties and Antitumor Activity against Human Hepatoma and Colorectal Adenocarcinoma Cells” (Cancers, 2022).

Columns and labels:
P. mirabilis ATCC 12453 = test: micro-dilution broth method (MIC, MBC); assay type: cell-based, Proteus mirabilis
Balb/c 3T3 cells [1] = test: cytotoxicity, MTT, NRU, TPC and LDH assays taken together, 72 h; assay type: cell-based, murine; settings: non-cancer Balb/c 3T3 cells, range over MTT, TPC, LDH
Description: The human hepatoma (HepG2) and colorectal adenocarcinoma (Caco-2) cells were purchased from the American Type Culture Collection: ATCC HB-8065 and ATCC HTB-37, respectively. These cells were cultured in Minimum Essential Medium Eagle (MEME) (ATCC). The murine fibroblasts cell line (Balb/c 3T3 clone A31) (gift from the Department of Swine Diseases of the National Veterinary Research Institute in Pulawy) was cultured in Dulbecco’s Modified Eagle Medium (DMEM) (ATCC). The media were supplemented with 10% BCS (Balb/c 3T3), 10% FBS (HepG2), 20% FBS (Caco-2), 1% L-glutamine, 1% antibiotic solution. […] Cytotoxicity was assessed after 72 h of exposure of the cells to compounds. […]
(§1) The metabolic activity of living cells was assessed by the measurement of the activity of dehydrogenases. […] The plate was shaken for 15 min at room temperature and transferred to a microplate reader Synergy HTX multi-mode reader (BioTek® Instruments Inc., Winooski, VT, USA) to measure the absorbance at 570 nm, using a blank as a reference. Cytotoxicity was expressed as a percentage of the negative control.
This method is based on staining living cells with neutral red, which readily diffuses through the plasma membrane and accumulates in lysosomes. […] Cytotoxicity was expressed as a percentage of the negative control. […]

Balb/c 3T3 cells [2] = test: MTT assay (mitochondrial activity), 72 h exposure; assay type: cell-based, murine
Description: (§2) The human hepatoma (HepG2) and colorectal adenocarcinoma (Caco-2) cells were purchased from the American Type Culture Collection: ATCC HB-8065 and ATCC HTB-37, respectively. These cells were cultured in Minimum Essential Medium Eagle (MEME) (ATCC). The murine fibroblasts cell line (Balb/c 3T3 clone A31) (gift from the Department of Swine Diseases of the National Veterinary Research Institute in Pulawy) was cultured in Dulbecco’s Modified Eagle Medium (DMEM) (ATCC). The media were supplemented with 10% BCS (Balb/c 3T3), 10% FBS (HepG2), 20% FBS (Caco-2), 1% L-glutamine, 1% antibiotic solution. The cells were maintained in 75 cm^2 cell culture flasks (NUNC) in a humidified incubator at 37 °C in an atmosphere of 5% CO2. The medium was refreshed every two or three days, and the cells were trypsinized by 0.25% trypsin–0.02% EDTA after reaching 70–80% confluence. Single cell suspensions were prepared and adjusted to a density of 2 × 10^5 cell/mL^−1 (HepG2), 1 × 10^5 cell/mL^−1 (Caco-2) and 5 × 10^4 cell/mL^−1 (Balb/c 3T3). The cell suspension was transferred to 96-well plates (100 µL/well) and incubated for 24 h before the exposure to the studied compounds. Stock solutions of ligands and metal complexes were prepared in sterile water and diluted with culture medium to obtain a concentration range from 0.1 to 10 µM. The final concentration of sterile water was 0.1% in the medium. […] As a negative control, cultured cells were grown in the absence of studied compounds. Each concentration was tested in six replicates in three independent experiments. Cytotoxicity was assessed after 72 h of exposure of the cells to compounds. The medium was not changed during the incubation time.
as §1, with “control. […]” for “control.”

Balb/c 3T3 cells [3] = test: NRU assay (lysosomal activity), 72 h exposure; assay type: cell-based, murine
Description: as §2
This method is based on staining living cells with neutral red, which readily diffuses through the plasma membrane and accumulates in lysosomes. […] After 10 min of shaking, the absorbance of the dissolved NR was measured using a Synergy HTX multi-mode reader (BioTek® Instruments Inc., Winooski, VT, USA) at 540 nm using a blank as a reference. Cytotoxicity was expressed as a percentage of the negative control. […]

[4] = test system: reference aerobic and anaerobic microorganisms (ATCC); test: micro-dilution broth method, whole panel of reference strains; assay type: cell-based; settings: against the majority of tested bacterial strains
solubility in water = assay type: physicochemical; settings: qualitative statement
S. aureus biofilm = test: qualitative antibiofilm activity, confocal laser scanning microscope (CLSM); settings: 500 mg/L, 24 h exposure
[5] = P. mirabilis ATCC 12453, value in brackets

Structure (SMILES)	MBC (P. mirabilis ATCC 12453; P. mirabilis ATCC 12453)	MIC (P. mirabilis ATCC 12453; P. mirabilis ATCC 12453)	MBC (P. mirabilis ATCC 12453; [5])	MIC (P. mirabilis ATCC 12453; [5])	also measured
O=S(=O)([O-])[O-].[Ag+].[Ag+] [Ag2SO4, silver sulfate]	31.3 mg/L	31.3 mg/L	0.1 µM/mL	0.1 µM/mL	IC50 (Balb/c 3T3 cells [1]): 1.92 to 2.57 µM
O=[N+]([O-])[O-].[Ag+] [AgNO3, Silver nitrate]	15.6 mg/L	7.8 mg/L	0.09 µM/mL	0.049 µM/mL	
Cc1ncc([N+](=O)[O-])n1CCO [MTZ, 2-Methyl-5-nitroimidazole-1-ethanol]					IC50 (Balb/c 3T3 cells [2]; Mus musculus, BALB/c3T3, Balb/c 3T3, MTT, mean ± SD, n = 3): > 10 µM; IC50 (Balb/c 3T3 cells [3]; Mus musculus, BALB/c3T3, Balb/c 3T3, NRU, mean ± SD, n = 3): > 10 µM
Cc1ncc([N+](=O)[O-])n1CCO.Cc1ncc([N+](=O)[O-])n1CCO.Cc1ncc([N+](=O)[O-])n1CCO.Cc1ncc([N+](=O)[O-])n1CCO.O=S(=O)([O-])[O-].[Ag+].[Ag+] [[Ag(MTZ)2]2SO4]					lowest concentration with significant (p ≤ 0.05) effect (Balb/c 3T3 cells [2]; Balb/c 3T3, MTT, Figure 6): 5.0 µM; lowest concentration with significant (p ≤ 0.05) effect (Balb/c 3T3 cells [3]; Balb/c 3T3, NRU, Figure 6): 5.0 µM; minimal inhibition concentration (MIC), range [4]: 0.24 to 250 µg/mL; solubility in water (solubility in water): more soluble in water in comparison to Ag2SO4; effect on biofilm (CLSM, qualitative) (S. aureus biofilm): significantly reduced biofilm density
